Test system: Balb/c mice
Assay: Polypeptide chip-based vaccine immunogenicity scoring system
Format: in vivo
Design: key to A2: whether the 95 percentile of the last sampling is increased compared with the end point: Y = rise; N = no rise
Conditions: Embodiment III, polypeptide-KLH; for A1: difference between a highest median and a D 0 median (95 percentile) / A2: whether the 95 percentile of the last sampling is increased compared with the end point: Mix1-10; for Total single peptide: A*3 + B*2 + C*1; for A: 95 percentile grouping number score / B: Mouse performance score: total score = 5; for C1: #A timing-sequence response peptide fragment set / C2: #B vaccine specificity peptide fragment set / C3: Intersection of A and B / C4: Percentage of the intersection in set B / C: Timing-sequence response and specificity score: value of the whole mix
Description: Data distribution and characteristics thereof are analyzed based on a) and b), a polypeptide chip-based vaccine immunogenicity scoring system (referring to Table 7) is designed.
10 combinations are evaluated by the polypeptide chip-based vaccine immunogenicity scoring system. An evaluation method is consistent with that in Embodiment II. Evaluation results are show in the table below.
This embodiment is consistent with Embodiment II. Each combination is evaluated by the polypeptide chip-based vaccine immunogenicity scoring system. Evaluation results are show in the table below.

Sequence	B1: D 0-D 14 95 percentile rise in the number of mice	B2: D 0-D 21 95 percentile rise in the number of mice	B3: D 14-D 21 95 percentile rise in the number of mice	B4: D 21-D 28 95 percentile rise in the number of mice	A1: difference between a highest median and a D 0 median (95 percentile)	A2: whether the 95 percentile of the last sampling is increased compared with the end point	Total single peptide	A: 95 percentile grouping number score	B: Mouse performance score	C1: #A timing-sequence response peptide fragment set	C2: #B vaccine specificity peptide fragment set	C3: Intersection of A and B	C4: Percentage of the intersection in set B	C: Timing-sequence response and specificity score
RGGSYTNDKAC (SARS-CoV-2) [SEQ ID NO:2]	3	3	2	0	0.14	N	18.3	4.5	1.9	288	268	4	1.493	1
GTITVEELKK (SARS-CoV-2) [SEQ ID NO:39]	1	2	2	0	0.03	N	5.7	1	1.1	145	529	1	0.189	0.5
HGKEDLKF (SARS-CoV-2) [SEQ ID NO:23]	3	3	0	1	0.20	N	19.4	5	1.7	1494	190	2	1.053	1
RLFRKSNLK (SARS-CoV-2) [SEQ ID NO:35]	3	3	2	0	0.10	N	16.3	4	1.9	352	541	1	0.185	0.5

Source: US20230136600A1, “Method and device for screening antigen epitope polypeptide” (priority 2020, published 2023)
